What was measured:
[1] = test system: PBMC from FIV-vaccinated cats; test: Feline IFNγ ELISpot of PBMC from vaccinated cats; assay type: cell-based, cat; conditions: for IFNγ production: pilot study, pre-challenge; for IFNγ response rate: MAP Trial 2
[2] = test system: feline CD3^+CD8^+ T cells; test: CFSE-based feline CD3+CD8+ T-cell proliferation; set-up: species or system cat; conditions: FIV-vaccinated cats; for CD8, frequency of responders: FIV epitope peptide; for CD8^+ T (T-cell proliferation), frequency of responders: FIV peptides
Summary of the method: (§1)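 CFSE-labelled PBMCs (2.5×10^5) from cats stimulated 5 days at 37 °C with peptides or overlapping peptide pools at 4 μg/mL each. Proliferating CD3+CD4+ and CD3+CD8+ cells gated by flow. Media/control values subtracted; positive threshold ≥1 CFSE^low (≥0.5 CFSE^low in vaccine trial).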

[3] = test system: PBMC from FIV-vaccinated cats; test: Feline IL2 ELISpot of PBMC from vaccinated cats; assay type: cell-based, cat
Summary of the method: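 PBMC from cats given a dual-subtype FIV vaccine were stimulated with FIV MAPs, peptides or overlapping peptide pools, and IFNγ or IL2 spots were counted. Values are duplicate means after subtraction of media controls (or of control-cat averages), with ≥50 SFU per 1×10^6 PBMC as the threshold.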

[4] = test system: feline CD3^+CD4^+ T cells; test: CFSE-based feline CD3+CD4+ T-cell proliferation; set-up: species or system cat; conditions: FIV-vaccinated cats; for CD4, frequency of responders: FIV epitope peptide; for CDC4^+ T (T-cell proliferation), frequency of responders: FIV peptides
Summary of the method: as §1

[5] = FIV epitope peptide, FIV-vaccinated cats
[6] = FIV peptides, FIV-vaccinated cats (prototype dual-subtype vaccine)

LLLILCLPTLVDCIRN [FTM8(20)]
IFNγ, frequency of responders [1, 5]: ++ (26%-40% (++))
IFNγ, frequency of responders [1, 6]: ++ (25.1%-40% (++))
CD8, frequency of responders [2]: ++++ (>54% (++++))
CD8^+ T (T-cell proliferation), frequency of responders [2]: ++++ (>54% (++++))
IL2, frequency of responders ([3]; FIV epitope peptide): — (0%-1.4% (—))
IL2, frequency of responders ([3]; FIV peptides): — (0%-1.4%(—))
CD4, frequency of responders [4]: ++ (26%-40% (++))
CDC4^+ T (T-cell proliferation), frequency of responders [4]: ++ (25.1%-40% (++))

AGLRQSLEQYQVVKQ [FSU4]
IFNγ, frequency of responders [1, 5]: +++ (41%-54% (+++))
IFNγ, frequency of responders [1, 6]: +++ (40.1%-54% (+++))
CD8, frequency of responders [2]: +++ (41%-54% (+++))
CD8^+ T (T-cell proliferation), frequency of responders [2]: +++ (40.1%-54% (+++))
IL2, frequency of responders ([3]; FIV epitope peptide): — (0%-1.4% (—))
IL2, frequency of responders ([3]; FIV peptides): — (0%-1.4%(—))
CD4, frequency of responders [4]: +++ (41%-54% (+++))
CDC4^+ T (T-cell proliferation), frequency of responders [4]: +++ (40.1%-54% (+++))

PTDMATLIMAAPGCA [Fp4-3]
IFNγ, frequency of responders [1, 5]: ++ (26%-40% (++))
IFNγ, frequency of responders [1, 6]: ++ (25.1%-40% (++))
IFNγ production ([1]; cat OCA): 161 SFU
IFNγ production ([1]; cat SBA): 60 SFU
CD8, frequency of responders [2]: + (12.5%-25% (+))
CD8^+ T (T-cell proliferation), frequency of responders [2]: + (12.5%-25% (+))
IL2, frequency of responders ([3]; FIV epitope peptide): + (12.5%-25% (+))
IL2, frequency of responders ([3]; FIV peptides): + (12.5%-25% (+))
CD4, frequency of responders [4]: ++++ (>54% (++++))
CDC4^+ T (T-cell proliferation), frequency of responders [4]: ++++ (>54% (++++))

KFLYTAFAMQELR [FTM4-3]
IFNγ, frequency of responders [1, 5]: ++++ (>54% (++++))
IFNγ, frequency of responders [1, 6]: ++++ (>54% (++++))
CD8, frequency of responders [2]: ++ (26%-40% (++))
CD8^+ T (T-cell proliferation), frequency of responders [2]: ++ (25.1%-40% (++))
IL2, frequency of responders ([3]; FIV epitope peptide): ++++ (>54% (++++))
IL2, frequency of responders ([3]; FIV peptides): ++++ (>54% (++++))
CD4, frequency of responders [4]: ++ (26%-40% (++))
CDC4^+ T (T-cell proliferation), frequency of responders [4]: ++ (25.1%-40% (++))

KKKSGKWRMLIDFRV [FRT3-3]
IFNγ, frequency of responders [1, 6]: ± (1.5%-12.4% (±))
CD8, frequency of responders [2]: +++ (41%-54% (+++))
CD8^+ T (T-cell proliferation), frequency of responders [2]: +++ (40.1%-54% (+++))
IL2, frequency of responders ([3]; FIV epitope peptide): ++ (26%-40% (++))
IL2, frequency of responders ([3]; FIV peptides): ++ (25.1%-40% (++))
CD4, frequency of responders [4]: ++ (26%-40% (++))
CDC4^+ T (T-cell proliferation), frequency of responders [4]: ++ (25.1%-40% (++))

WRMLIDFRVLNKL [FRT3-4]
IFNγ, frequency of responders [1, 5]: ++ (26%-40% (++))
IFNγ, frequency of responders [1, 6]: ++ (25.1%-40% (++))
IFNγ response rate ([1]; 6 weeks post-3rd vaccination): 64.3%
IFNγ response rate ([1]; SQ and ID MAP-vaccinated cats, 6 weeks post-2nd vaccination): 14.3%
CD8, frequency of responders [2]: +++ (41%-54% (+++))
CD8^+ T (T-cell proliferation), frequency of responders [2]: +++ (40.1%-54% (+++))
IL2, frequency of responders ([3]; FIV epitope peptide): ++ (26%-40% (++))
IL2, frequency of responders ([3]; FIV peptides): ++ (25.1%-40% (++))
CD4, frequency of responders [4]: + (12.5%-25% (+))
CDC4^+ T (T-cell proliferation), frequency of responders [4]: + (12.5%-25% (+))

— patent publication US10758609B2, “Cross-reactive T-cell epitopes of HIV, SIV, and FIV for vaccines in humans and cats” (priority 2015, dated 2020)
